Target: GST-Bcl-2 (Homo sapiens (Human), UniProt P10415)
Test: Time Resolved-Fluorescence Resonance Energy Transfer (TR-FRET) Bcl-2 binding assay
Conditions: GST-Bcl-2 1 nM, F-Bak peptide probe 100 nM, Tb-anti-GST antibody 1 nM; Ki by Wang's equation
Method in brief: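 Ki values derived from TR-FRET displacement of F-Bak peptide from GST-Bcl-2, detected with Tb-labelled anti-GST antibody (ex 340, em 520/495 nm). Compound dilution series started at 50 μM (2× starting concentration); room-temperature incubation 3 hours.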

GST-Bcl-2, sequence (P10415 whole entry): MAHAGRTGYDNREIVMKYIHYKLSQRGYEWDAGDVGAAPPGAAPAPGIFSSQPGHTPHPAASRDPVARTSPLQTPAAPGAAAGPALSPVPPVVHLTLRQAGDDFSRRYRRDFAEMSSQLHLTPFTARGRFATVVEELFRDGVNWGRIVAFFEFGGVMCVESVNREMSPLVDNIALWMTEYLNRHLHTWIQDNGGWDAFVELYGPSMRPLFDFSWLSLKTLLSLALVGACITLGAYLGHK

`CC1(C)CCC(CN2CCN(c3ccc(C(=O)NS(=O)(=O)c4cnc(OCC5(F)CCOCC5)c(F)c4)c(Oc4cnc(N)c(Cl)c4)c3)CC2)=C(c2ccc(Cl)cc2)C1` [Example 402, 2-[(6-amino-5-chloropyridin-3-yl)oxy]-4-(4-{[2-(4-chlorophenyl)-4,4-dimethylcyclohex-1-en-1-yl]methyl}piperazin-1-yl)-N-({5-fluoro-6-[(4-fluorotetrahydro-2H-pyran-4-yl)methoxy]pyridin-3-yl}sulfonyl)benzamide] and `Cc1cc(Oc2cc(N3CCN(CC4=C(c5ccc(Cl)cc5)CC(C)(C)CC4)CC3)ccc2C(=O)NS(=O)(=O)c2ccc(NCC3CCOCC3)c([N+](=O)[O-])c2)cnc1N` [Example 362, 2-[(6-amino-5-methylpyridin-3-yl)oxy]-4-(4-{[2-(4-chlorophenyl)-4,4-dimethylcyclohex-1-en-1-yl]methyl}piperazin-1-yl)-N-({3-nitro-4-[(tetrahydro-2H-pyran-4-ylmethyl)amino]phenyl}sulfonyl)benzamide] are within 1.5-fold of each other in Ki: 39 pM for the first, 33 pM for the second.

Compared with `CCNCc1cccc(Oc2cc(N3CCN(Cc4ccccc4-c4ccc(Cl)cc4)CC3)ccc2C(=O)NS(=O)(=O)c2ccc(NCC3CCOCC3)c([N+](=O)[O-])c2)c1` [Example 81, 4-(4-((4′-chloro-1,1′-biphenyl-2-yl)methyl)piperazin-1-yl)-2-(3-((ethylamino)methyl)phenoxy)-N-((3-nitro-4-((tetrahydro-2H-pyran-4-ylmethyl)amino)phenyl)sulfonyl)benzamide], `CC1(C)CCC(CN2CCN(c3ccc(C(=O)NS(=O)(=O)c4ccc(NCC5CCOCC5)c([N+](=O)[O-])c4)c(Oc4ccnc(NC(=O)OC(C)(C)C)c4)c3)CC2)=C(c2ccc(Cl)cc2)C1` [Example 280, tert-butyl 4-(5-(4-{[2-(4-chlorophenyl)-4,4-dimethylcyclohex-1-en-1-yl]methyl}piperazin-1-yl)-2-{[({3-nitro-4-[(tetrahydro-2H-pyran-4-ylmethyl)amino]phenyl}sulfonyl)amino]carbonyl}phenoxy)pyridin-2-ylcarbamate] is 4.1-fold lower in Ki: 31000 pM for the first, 7550 pM for the second. The second binds more tightly here.

Going from `CC1(C)CCC(CN2CCN(c3ccc(C(=O)NS(=O)(=O)c4ccc(NCCCN5CCOCC5)c([N+](=O)[O-])c4)c(Oc4ccccc4Cl)c3)CC2)=C(c2ccc(Cl)cc2)C1` [Example 116, 2-(2-chlorophenoxy)-4-(4-{[2-(4-chlorophenyl)-4,4-dimethylcyclohex-1-en-1-yl]methyl}piperazin-1-yl)-N-({4-[(3-morpholin-4-ylpropyl)amino]-3-nitrophenyl}sulfonyl)benzamide] to `CN1CCC(Nc2ccc(S(=O)(=O)NC(=O)c3ccc(N4CCN(CC5=C(c6ccc(Cl)cc6)CC(C)(C)CC5)CC4)cc3Oc3cccc(Cl)c3Cl)cc2[N+](=O)[O-])CC1` [Example 54, 4-(4-((2-(4-chlorophenyl)-4,4-dimethylcyclohex-1-en-1-yl)methyl)piperazin-1-yl)-2-(2,3-dichlorophenoxy)-N-((4-((1-methylpiperidin-4-yl)amino)-3-nitrophenyl)sulfonyl)benzamide], the Ki falls from 123 pM to 82 pM (1.5-fold). The second binds more tightly here.

First: COCCN1CCC(Nc2ccc(S(=O)(=O)NC(=O)c3ccc(N4CCN(CC5=C(c6ccc(Cl)cc6)CC(C)(C)CC5)CC4)cc3Oc3cccc(Cl)c3)cc2[N+](=O)[O-])CC1 [Example 173, 2-(3-chlorophenoxy)-4-(4-{[2-(4-chlorophenyl)-4,4-dimethylcyclohex-1-en-1-yl]methyl}piperazin-1-yl)-N-[(4-{[1-(2-methoxyethyl)piperidin-4-yl]amino}-3-nitrophenyl)sulfonyl]benzamide]
Second: CC1(C)CCC(CN2CCN(c3ccc(C(=O)NS(=O)(=O)c4ccc(NC5CCN(C6CC6)CC5)c([N+](=O)[O-])c4)c(Oc4cccc(Cl)c4)c3)CC2)=C(c2ccc(Cl)cc2)C1 [Example 119, 2-(3-chlorophenoxy)-4-(4-{[2-(4-chlorophenyl)-4,4-dimethylcyclohex-1-en-1-yl]methyl}piperazin-1-yl)-N-({4-[(1-cyclopropylpiperidin-4-yl)amino]-3-nitrophenyl}sulfonyl)benzamide]
The Ki of the first is 8.2-fold lower: 19 pM for the first, 156 pM for the second. The first binds more tightly here.
